In brackets after ≈: the same amount, converted by molar mass. Like-named read-outs stand apart in the source and are kept apart here.
Assays:
[1] = system: M. tuberculosis 50; experiment: MIC against M. tuberculosis strains, agar dilution; assay type: cell-based, Mycobacterium tuberculosis; settings: S. No. 12 Mt-, Middle Brook 7H10 + OADC, 37° C., 14-21 days
[2] = system: M. tuberculosis PC 4793; experiment: MIC against M. tuberculosis strains, agar dilution; assay type: cell-based, Mycobacterium tuberculosis; settings: Middle Brook 7H10 + OADC, 37° C., 14-21 days
[3] = system: M avium ATCC 700897; experiment: MIC against MAC strains, agar dilution; assay type: cell-based, Mycobacterium avium; settings: S. No. 05 Ma-6, M avium ATCC 700897, Middle Brook 7H10 + OADC, 37° C., 14-21 days
[4] = system: M. avium intracellulare 4; experiment: MIC against MAC strains, agar dilution; assay type: cell-based; settings: S. No. 11 Mai-2, M. avium intracellulare 4, Middle Brook 7H10 + OADC, 37° C., 14-21 days
[5] = system: M. avium AIIMS; experiment: MIC against MAC strains, agar dilution; assay type: cell-based, Mycobacterium avium; settings: S. No. 04 Ma-4, M. avium AIIMS, Middle Brook 7H10 + OADC, 37° C., 14-21 days
[6] = system: S. pyogenes 25147; experiment: MIC, agar incorporation method; assay type: cell-based, Streptococcus pyogenes; settings: Streptococcus pyogenes, 25147
[7] = system: S. warnerii ST360; experiment: MIC, agar incorporation method; assay type: cell-based
[8] = system: H. influenzae R; experiment: MIC against Haemophilus strains; assay type: cell-based; settings: Haemophilus influenzae; s. No. 4, H. influenzae R; read-out: MIC
[9] = system: H. influenzae ATCC 49247; experiment: MIC against Haemophilus strains; assay type: cell-based; settings: Haemophilus influenzae, ATCC49247; s. No. 2, H. influenzae ATCC 49247; read-out: MIC
[10] = system: S. epidermidis 358; experiment: MIC, agar incorporation method; assay type: cell-based, Staphylococcus epidermidis; settings: Staphylococcus epidermidis
[11] = system: S. haemo ATCC 29970; experiment: MIC, agar incorporation method; assay type: cell-based
[12] = system: S. aureus (Smith 49951); experiment: MIC, agar incorporation method; assay type: cell-based, Staphylococcus aureus; settings: Staphylococcus aureus
[13] = system: S. pneumoniae CS 1687; experiment: MIC, agar incorporation method; assay type: cell-based, Streptococcus pneumoniae; settings: Streptococcus pneumoniae, CS1687
[14] = system: S. epidermidis ATCC 12228; experiment: MIC, agar incorporation method; assay type: cell-based, Staphylococcus epidermidis; settings: Staphylococcus epidermidis, ATCC12228
[15] = system: H. influenzae 474; experiment: MIC against Haemophilus strains; assay type: cell-based; settings: Haemophilus influenzae; s. No. 11, H. influenzae 474; read-out: MIC
[16] = system: S. pneumoniae AB 14; experiment: MIC, agar incorporation method; assay type: cell-based, Streptococcus pneumoniae; settings: Streptococcus pneumoniae, AB14
[17] = system: S. pneumoniae AB-3; experiment: MIC, agar incorporation method; assay type: cell-based, Streptococcus pneumoniae; settings: Streptococcus pneumoniae, AB3
[18] = system: (MRSA) 562; experiment: MIC, agar incorporation method; assay type: cell-based, Staphylococcus aureus; settings: Staphylococcus aureus
[19] = system: E. faecium 6A (VRE); experiment: MIC, agar incorporation method; assay type: cell-based, Enterococcus faecium; settings: Enterococcus faecium
[20] = system: S. epidermidis 823; experiment: MIC, agar incorporation method; assay type: cell-based, Staphylococcus epidermidis; settings: Staphylococcus epidermidis, 823
[21] = system: Moraxella M1; experiment: MIC, agar incorporation method; assay type: cell-based
[22] = system: S. pneumoniae ATCC 6303; experiment: MIC, agar incorporation method; assay type: cell-based, Streptococcus pneumoniae; settings: Streptococcus pneumoniae, ATCC6303
[23] = system: S. pneumoniae CS1221; experiment: MIC, agar incorporation method; assay type: cell-based, Streptococcus pneumoniae; settings: Streptococcus pneumoniae
[24] = system: S. aureus ATCC 25923; experiment: MIC, agar incorporation method; assay type: cell-based, Staphylococcus aureus; settings: Staphylococcus aureus, ATCC25923
[25] = system: E. coli 25922; experiment: MIC, agar incorporation method; assay type: cell-based; settings: Escherichia coli
[26] = system: S. aureus (MRSA) ST450; experiment: MIC, agar incorporation method; assay type: cell-based, Staphylococcus aureus; settings: Staphylococcus aureus
[27] = system: S. pneumoniae AB 22; experiment: MIC, agar incorporation method; assay type: cell-based, Streptococcus pneumoniae; settings: Streptococcus pneumoniae, AB22
[28] = system: S. pneumoniae AB 17; experiment: MIC, agar incorporation method; assay type: cell-based, Streptococcus pneumoniae; settings: Streptococcus pneumoniae, AB17
[29] = system: S. epidermidis (MRSE)32965; experiment: MIC, agar incorporation method; assay type: cell-based, Staphylococcus epidermidis; settings: Staphylococcus epidermidis, MRSE
[30] = system: Acinetobacter 9956; experiment: MIC, agar incorporation method; assay type: cell-based
[31] = system: S. aureus ATCC29213; experiment: MIC, agar incorporation method; assay type: cell-based, Staphylococcus aureus; settings: Staphylococcus aureus
[32] = system: S. pneumoniae AB 31; experiment: MIC, agar incorporation method; assay type: cell-based, Streptococcus pneumoniae; settings: Streptococcus pneumoniae, AB31
[33] = system: E. faecalis 29212; experiment: MIC, agar incorporation method; assay type: cell-based; settings: Enterococcus faecalis
[34] = Mycobacterium tuberculosis, read-out: MIC
[35] = Mycobacterium tuberculosis, PC4793, S. No. 23 Mt-, read-out: MIC
[36] = Mycobacterium avium, read-out: MIC

CC[C@H]1OC(=O)[C@H](C)[C@@H](O[C@H]2C[C@@](C)(OC)[C@@H](O)[C@H](C)O2)[C@H](C)[C@@H](O[C@@H]2O[C@H](C)C[C@H](N(C)C)[C@H]2O)[C@](C)(OC)C[C@@H](C)C(=O)[C@H](C)[C@@H](O)[C@]1(C)O [CLA] gave an MIC [1] of 16 µg/mL, an MIC ([2]; S. No. 23 Mt-) of 8.0 µg/mL and an MIC [3] of 2.0 µg/mL. For the same molecule, the MIC [4] was less than 0.25 µg/mL and the MIC [5] was 1.0 µg/mL.

With C[C@@H]1CN(c2c(F)c(N)c3c(=O)c(C(=O)O)cn(C4CC4)c3c2F)C[C@H](C)N1 [SPAR] the MIC [1] was 4.0 µg/mL, the MIC ([2]; S. No. 23 Mt-) was 4.0 µg/mL and the MIC [3] was 2.0 µg/mL. It also gave an MIC [4] of 1.0 µg/mL and an MIC [5] of 8.0 µg/mL.

CC(=O)NC[C@H]1CN(c2ccc(N3CCN(c4ccc([N+](=O)[O-])s4)CC3)c(F)c2)C(=O)O1 [Compound No. 1, (S)—N-[[3-[3-Fluoro-4-[4-(5-nitro-2-thienyl)-1-piperazinyl]phenyl]-2-oxo-5-oxazolidinyl]methyl]acetamide] showed an MIC [6] of 0.125 µg/mL (≈ 0.27 µM), an MIC [7] of 0.125 µg/mL (≈ 0.27 µM) and an MIC [8] of 8 µg/mL (≈ 17.3 µM). It also gave an MIC [9] of 8 µg/mL (≈ 17.3 µM), an MIC ([10]; S. No. 14, S. epidermidis 358, read-out: MIC) of 0.25 µg/mL (≈ 0.539 µM) and an MIC [11] of 0.125 µg/mL (≈ 0.27 µM). It also gave an MIC ([12]; S. No. 9, S. aureus (Smith 49951), read-out: MIC) of 0.25 µg/mL (≈ 0.539 µM), an MIC [13] of 0.125 µg/mL (≈ 0.27 µM) and an MIC [14] of 0.125 µg/mL (≈ 0.27 µM). It also gave an MIC [15] of 16 µg/mL (≈ 34.5 µM), an MIC [16] of 0.125 µg/mL (≈ 0.27 µM) and an MIC ([17]; S. No. 32, S. pneumoniae AB-3, read-out: MIC) of 0.06 µg/mL (≈ 0.129 µM). For the same molecule, the MIC ([18]; S. No. 8, (MRSA) 562, read-out: MIC) was 0.25 µg/mL (≈ 0.539 µM), the MIC [1, 34] was 2 µg/mL and the MIC ([19]; S. No. 21, E. faecium 6A (VRE), read-out: MIC) was 0.25 µg/mL (≈ 0.539 µM). The MIC [20] was 0.125 µg/mL (≈ 0.27 µM), the MIC ([21]; S. No. 58, Moraxella M1, read-out: MIC) was 1 µg/mL (≈ 2.16 µM) and the MIC [22] was 0.125 µg/mL (≈ 0.27 µM). The MIC [2, 35] was greater than 32 µg/mL, the MIC ([23]; S. No. 34, S. pneumoniae CS1221, read-out: MIC) was 0.06 µg/mL (≈ 0.129 µM) and the MIC ([3]; Mycobacterium avium, ATCC700897, read-out: MIC) was less than 0.123 µg/mL. The MIC ([24]; S. No. 1, organism cell empty, read-out: MIC) was 0.25 µg/mL (≈ 0.539 µM), the MIC ([25]; S. No. 25, E. coli 25922, read-out: MIC) was greater than 16 µg/mL and the MIC [4, 36] was less than 0.125 µg/mL. The MIC ([26]; S. No. 6, S. aureus (MRSA) ST450, read-out: MIC) was 0.25 µg/mL (≈ 0.539 µM), the MIC [27] was 0.125 µg/mL (≈ 0.27 µM) and the MIC ([28]; S. No. 40, S. pneumoniae AB 17, read-out: MIC) was 0.06 µg/mL (≈ 0.129 µM). The MIC [29] was 0.125 µg/mL (≈ 0.27 µM), the MIC [5, 36] was 0.25 µg/mL and the MIC ([30]; S. No. 30, Acinetobacter 9956, read-out: MIC) was greater than 16 µg/mL. For the same molecule, the MIC ([31]; S. No. 2, S. aureus ATCC29213, read-out: MIC) was 0.25 µg/mL (≈ 0.539 µM), the MIC [32] was 0.125 µg/mL (≈ 0.27 µM) and the MIC ([33]; S. No. 17, E. faecalis 29212, read-out: MIC) was 0.25 µg/mL (≈ 0.539 µM).

For CC(=O)NC[C@H]1CN(c2ccc(N3CCOCC3)c(F)c2)C(=O)O1 [Linezolid, reference compound], the MIC [6] was 1 µg/mL (≈ 2.96 µM), the MIC [7] was less than 0.5 µg/mL and the MIC [8] was 16 µg/mL (≈ 47.4 µM). It also gave an MIC [9] of 8 µg/mL (≈ 23.7 µM), an MIC [10]; 358 of 1 µg/mL (≈ 2.96 µM) and an MIC [11] of less than 0.5 µg/mL. It also gave an MIC [12] of 1 µg/mL (≈ 2.96 µM), an MIC [13] of 1 µg/mL (≈ 2.96 µM) and an MIC [14] of less than 0.5 µg/mL. It also gave an MIC [15] of 16 µg/mL (≈ 47.4 µM), an MIC [16] of 1 µg/mL (≈ 2.96 µM) and an MIC [17] of 0.25 µg/mL (≈ 0.741 µM). The MIC ([18]; MRSA) was 1 µg/mL (≈ 2.96 µM), the MIC [1, 34] was greater than 32 µg/mL and the MIC ([19]; VRE) was 2 µg/mL (≈ 5.93 µM). For the same molecule, the MIC [20] was less than 0.5 µg/mL, the MIC ([21]; Moraxella, M1) was 4 µg/mL (≈ 11.9 µM) and the MIC [22] was 1 µg/mL (≈ 2.96 µM). For the same molecule, the MIC [2, 35] was 8 µg/mL, the MIC ([23]; CS1221) was 0.25 µg/mL (≈ 0.741 µM) and the MIC [24] was 2 µg/mL (≈ 5.93 µM). It also gave an MIC [25]; 25922 greater than 16 µg/mL, an MIC [4, 36] of 8 µg/mL and an MIC ([26]; MRSA) of 1 µg/mL (≈ 2.96 µM). It also gave an MIC [27] of 1 µg/mL (≈ 2.96 µM), an MIC [28] of 1 µg/mL (≈ 2.96 µM) and an MIC [29] of 1 µg/mL (≈ 2.96 µM). It also gave an MIC ([30]; Acinetobacter, 9956) greater than 16 µg/mL, an MIC ([31]; ATCC29213) of 2 µg/mL (≈ 5.93 µM) and an MIC [32] of 1 µg/mL (≈ 2.96 µM). It also gave an MIC [33]; 29212 of 2 µg/mL (≈ 5.93 µM).

— patent US20060293307A1, “Oxazolidinone derivatives as antimicrobials” (priority 2002, published 2006)
